Reference: patent publication US4117145A, “1-Substituted pyrazoles” (Bayer Aktiengesellschaft, priority 1975, dated 1978)

System: thromb formation (left jugular vein, rats)
Experiment: Antithrombotic action: thromb formation in supercooled left jugular vein of rats, thromb weighed 4 hours later
Assay type: in vivo, rat
Description: The left jugular vein of rats weighing 170 to 180 g was exposed under ether narcosis and supercooled to -12° C for 2 minutes to stimulate thromb formation. The thromb was isolated from the vein 4 hours later, and was weighed. The test animals were given the test preparation in tragacanth mucilage immediately before supercooling the wall of the blood vessel. As a result, the protective antithrombotic activity was tested in the first 4 hours after stimulating thromb formation.

Cc1cc(OC(=O)c2ccco2)n(CCOc2ccc3ccccc3c2)n1 [Example 20, 5-(Furyl-(2)-carbonyloxy)-3-methyl-1-(2-(β-naphthyloxy)-ethyl)-pyrazole]
reduction of size of the thrombs (after a 4 hour period of action): 61%
Thromb size, mean value (rats, 10 mg/kg, administered orally immediately before supercooling, thromb isolated 4 hours later, 12 experiments, control 115 ± 12 (14 experiments)): 45 ± 10 µg
Inhibition in % (rats, 10 mg/kg, administered orally, versus control animals without active compound): 61%
